Reference: patent publication US6664231B1, “Anti-fungal peptides” (priority 1993, dated 2003)

How the values were obtained:
[1] = tested on: Candida albicans SLU-2G amphotericin B-resistant strain; test: Radial diffusion assay (Example 3), amphotericin B-resistant strain; assay type: cell-based; details: FIG. 2B
Description: Domain III derived peptides were tested for their fungicidal activity on amphotericin resistant Candida. Resistant colonies of Candida were isolated using a gradient plate technique. A slanted Sabouraud dextrose agar plate was poured and allowed to harden. The plate was made level and additional agar supplemented with nystatin (Sigma, St. Louis, Mo., cat. no. N-3503) at a concentration of 10 μg/mL was poured. Cells from the CA-1 colony of Candida albicans SLU-1 strain described in Example 2 (10^7 cells in a volume of 100 μL) were spread over the plate and incubated at […] overnight.
For the radial diffusion assays, Candida albicans SLU-1 were grown as described above and SLU-2G were grown overnight in Sabouraud dextrose broth supplemented with 10 μg/mL amphotericin B and 5 μg/mL ceftriaxone at 37° C. Cultures were diluted 1:25 into fresh, unsupplemented broth and allowed to grow for 5 hours at 37° C. Cells were pelleted at 1,500×g for 5 minutes at 4° C. Supernatant was decanted and replaced with 5 mL of 10 mM phosphate buffer, pH 7.4. After centrifugation the cell pellets were resuspended with 5 mL phosphate buffer for an OD570 determination.
Cells were added to 10 mL of molten, cooled (˜45° C.) underlayer agarose to a concentration of 1×10^6/mL and the suspension was poured into a level square petri plate with gentle rocking to allow even distribution and solidification to a uniform thickness of about 1 mm. Wells were cut into the hardened agarose with a sterilize, 3 mm diameter punch with vacuum.
Peptides were two-fold serially diluted with DPBS from a starting concentration of approximately 1 mg/mL. […] Five μL were added per well and allowed to diffuse at 37° C. for 1.5-2.0 hours. Then 10 mL of molten overlayer agarose were added and the plates were incubated inverted at 37° C. overnight. Plates were stained with a dilute Coomassie solution, inhibition zones were measured with calipers and net areas were calculated, then converted to pmol values by PROBIT analysis.

[2] = tested on: C. albicans (SLU-1 strain); test: Survival of mice systemically infected with Candida albicans; assay type: in vivo, mouse
Description: Groups of 15 male DBA/2J mice at age 6-8 weeks (Jackson Laboratory, Bar Harbor, Me.) were inoculated with 1.24×10^5 C. albicans (SLU-1 strain as described in Example 2) by intravenous injection into the tail vein. Cells were prepared for animal injection as follows. A single colony was selected and used to inoculate a 5 mL tube of Sabouraud dextrose broth. Incubation was at 30° C. with shaking to allow aeration for a period of 15-18 hours. Four mL of the overnight culture were added to 100 mL of fresh Sabouraud dextrose broth (1:25 dilution) and incubated for 4 hours. The 100 mL culture was pelleted at 1,500×g for 5 minutes. Cells were washed twice by adding 20 mL D-PBS, vortexing and re-centrifuging. Cells were collected in one tube and a sample is diluted 1:10 to be measured by OD570 (1 OD unit=3×10^7 CFU/mL). The cells were diluted to the desired dose in D-PBS and kept at 4° C. until used. Doses were confirmed by performing serial ten-fold dilutions and plating 50 μl per dilution on Sabouraud dextrose agar. Colonies were counted the following day after overnight incubation at 37° C. A […] culture yielded approximately 1×10^9 CFU/mL.
Immediately after fungal challenge, the mice were intravenously injected via the tail vein with a 0.1 mL volume of 10 mg/kg XMP.36, 5 mg/kg XMP.97, 10 mg/kg XMP.102, 1 mg/kg amphotericin B (Sigma, St. Louis, Mo.), or phosphate buffered saline (PBS) as a control. Treatment with the same amounts of peptides, amphotericin B or PBS was repeated at Day 2 and Day 4 (except that the second dose of XMP.36 was given at a dose of 5 mg/kg). Mice were monitored twice daily for mortality until termination of the study at Day 28. […] In FIG. 4, the symbol “X” represents survival after treatment with amphotericin B; open squares, treatment with XMP.97; open circles, treatment with XMP.36; open diamonds, treatment with XMP.102; and open triangles, treatment with buffer. Statistical significance was evaluated using the Lifetest Survival Curve analysis. [Lawless, Statistical Models and Methods for Lifetime Data, John Wiley & Sons, New York (1982).] The duration and almost linear decline in survival is analogous to human opportunistic candidiasis.
In additional 3-dose studies, groups of 15 mice were injected with a fungal challenge of 0.5×10^5 Candida cells, prepared for injection as described above, followed by treatment at Day 0, Day 2 and Day 5 with a 0.1 mL volume of 10 mg/kg XMP.127, 5 mg/kg XMP.13, 5 mg/kg XMP.37, 1 mg/kg amphotericin B, or PBS as a control. […] In FIG. 5, the symbol “X” represents survival after treatment with amphotericin B; open circles, treatment with XMP.127; filled triangles, treatment with buffer; open squares, treatment with XMP.37; open triangles, treatment with XMP.13.
Further studies to determine the effectiveness of anti-fungal peptides were performed at an increased dosing regimen (6 doses rather than 3 doses as described above). Groups of 9 week-old male DBA/2J mice were inoculated with concentrations of 2.7×10^5 Candida cells (prepared as described above) by intravenous injection in the tail vein. Immediately after fungal challenge, the mice were treated with a 0.1 mL volume of 10 mg/kg XMP.284, 1 mg/kg amphotericin B or PBS as a control at Day 0, Day 2, Day 4, Day 7, Day 9 and Day 11. All amphotericin B-treated animals were protected.
Additional 6-dose experiments were conducted as described above, using inocula of 0.5-3.0×10^5 Candida cells and using 0.01, 0.05, 0.1, 0.5, 1.0 or 5.0 mg/kg doses of peptide.

[3] = 0.5×10^5 Candida cells, doses Day 0, 2, 5, 10 mg/kg XMP.127, 5 mg/kg XMP.13, 5 mg/kg XMP.37, 1 mg/kg amphotericin B, FIG. 5
[4] = 2.7×10^5 Candida cells, 10 mg/kg, 6 doses (Day 0, 2, 4, 7, 9, 11), FIG. 6

| Compound | pmol for a 30 mm^2 zone of inhibition against SLU-2G [1] [pmol] | mice survived until Day 28 [2, 3] [%] | mice survived until Day 28 ([2]; 1.24×10^5 C. albicans i.v., 3 doses i.v. (Day 0, 2, 4), 10 mg/kg XMP.36, 5 mg/kg XMP.97, 10 mg/kg XMP.102, 1 mg/kg amphotericin B, FIG. 4) [%] | protection of animals (6-dose study) ([2]; 2.7×10^5 Candida cells, 1 mg/kg, 6 doses) | survival at Day 6 [2, 4] [%] | survival at Day 24 [2, 4] [%] |
| --- | --- | --- | --- | --- | --- | --- |
| C[C@@H]1[C@H](O)[C@@H](C)/C=C/C=C/C=C/C=C/C=C/C=C/C=C/[C@H](O[C@@H]2O[C@H](C)[C@@H](O)[C@H](N)[C@@H]2O)C[C@@H]2O[C@](O)(C[C@@H](O)C[C@@H](O)[C@H](O)CC[C@@H](O)C[C@@H](O)CC(=O)O[C@H]1C)C[C@H](O)[C@H]2C(=O)O [Amphotericin B, amphotericin B, reference compound] | > 541 | 100 | 100 | protected | – | – |
| H-KSKVGWAIQLFHKK-NH2 [XMP.37] | 75 | 33 | – | – | – | – |
| H-KSKVGWLIQLFHKK-NH2 [XMP.13] | 129 | 20 | – | – | – | – |
| H-SKVKWLIQLFHKK-NH2 [XMP.284] | – | – | – | – | 87 | 33 |
